Measurements as given in ChEMBL document CHEMBL6071182, “Design, Biological Characterization, and Discovery of Novel Cyclohexenyl Derivatives as Kinesin KIF18A Inhibitors for the Treatment of Ovarian Cancer” (ACS Med Chem Lett, 2024).
Values after ≈ are worked out from the molar mass of the structure shown.

Tests used:
[1] = Half life in human liver microsomes; format: ADME, Microsome
NUGC-3 = assay: Antiproliferative activity against human NUGC-3 cells assessed as chemiluminescence measured after 4 days incubation by Celltiter Glo assay; settings: NUGC-3, 96 h
[2] = biological target: Voltage-gated inwardly rectifying potassium channel KCNH2 (Homo sapiens, UniProt Q12809); assay: Inhibition of hERG; format: toxicity
[3] = Oral bioavailability in ICR mouse at 2 mg/kg; format: ADME, organism-based; settings: in vivo
[4] = Cmax in Cynomolgus monkey at 2 mg/kg, po and 1 mg/kg, iv; format: ADME, organism-based, Macaca fascicularis; settings: in vivo
[5] = Plasma protein binding in rat; format: ADME, cell-free; settings: read-out: PPB (converted)
Cytochrome P450 3A4 [6] = biological target: T1, Cytochrome P450 3A4 (Homo sapiens, UniProt P08684); assay: Inhibition of CYP3A4 (unknown origin) assessed as reduction in testosterone metabolism; format: ADME
OVCAR-3 [7] = assay: In vivo antiproliferative activity against human OVCAR-3 cells xenografted in po dosed nude Balc/c mouse tumor model assessed as reduction in tumor volume measured after 21 days; format: functional, organism-based; settings: dose 10-20 mg/kg, time 21.0 day, TDE = time-dependent effect
[8] = Solubility in compound in FassIF; format: physicochemical
[9] = Cmax in Balb/c mouse at 10 mg/kg, po; format: ADME, organism-based; settings: in vivo
[10] = Cmax in Beagle dog at 2 mg/kg, po and 1 mg/kg, iv; format: ADME, organism-based, Canis lupus familiaris; settings: in vivo
[11] = AUC in Beagle dog at 2 mg/kg, po and 1 mg/kg, iv; format: ADME, organism-based, Canis lupus familiaris; settings: in vivo
[12] = Plasma protein binding in monkey; format: ADME, cell-free, Macaca mulatta; settings: rhesus monkey, read-out: PPB (converted)
cells = settings: Homo sapiens, OVCAR-3, 96 h
Description: Antiproliferative activity against KIF18A siRNA sensitive human OVCAR-3 cells assessed as decrease in nuclei number measured after 4 days incubation by Hoechst 33342 DNA dye based nuclear count assay (NCA)

[13] = AUClast in Sprague-Dawley rat at 2 mg/kg, po and 1 mg/kg, iv; format: ADME, organism-based; settings: in vivo
[14] = Half life in Balb/c mouse at 10 mg/kg, po; format: ADME, organism-based; settings: in vivo
[15] = Half life in Beagle dog at 2 mg/kg, po and 1 mg/kg, iv; format: ADME, organism-based, Canis lupus familiaris; settings: in vivo
[16] = Half life in Balb/c mouse at 30 mg/kg, po; format: ADME, organism-based; settings: in vivo
[17] = Cmax in Sprague-Dawley rat at 2 mg/kg, po and 1 mg/kg, iv; format: ADME, organism-based; settings: in vivo
[18] = Half life in mouse liver microsomes; format: ADME, Microsome
[19] = Oral bioavailability in Sprague-Dawley rat at 2 mg/kg; format: ADME, organism-based; settings: in vivo
[20] = Half life in ICR mouse at 2 mg/kg, po and 1 mg/kg, iv; format: ADME, organism-based; settings: in vivo
[21] = AUC in Balb/c mouse at 30 mg/kg, po; format: ADME, organism-based; settings: in vivo
OVCAR-3 [22] = assay: In vivo antiproliferative activity against human OVCAR-3 cells xenografted in nude Balc/c mouse tumor model assessed as tumor growth inhibition at 30 mg/kg, po measured after 21 days; format: functional; settings: OVCAR-3, 504 h, time 21 day, read-out: TGI
[23] = Half life in rat liver microsomes; format: ADME, Microsome
[24] = Permeability of compound across basolateral to apical side in human Caco-2 cells; format: ADME, cell-based; settings: read-out: permeability
[25] = Oral bioavailability in Cynomolgus monkey at 2 mg/kg; format: ADME, organism-based, Macaca fascicularis; settings: in vivo
BXPC-3 = assay: Antiproliferative activity against human BxPC-3 cells assessed as chemiluminescence measured after 4 days incubation by Celltiter Glo assay; settings: BXPC-3, 96 h
[26] = AUC in ICR mouse at 2 mg/kg, po and 1 mg/kg, iv; format: ADME, organism-based; settings: in vivo
[27] = Cmax in ICR mouse at 2 mg/kg, po and 1 mg/kg, iv; format: ADME, organism-based; settings: in vivo
[28] = Oral bioavailability in Beagle dog at 2 mg/kg; format: ADME, organism-based, Canis lupus familiaris; settings: in vivo
[29] = Half life in Sprague-Dawley rat at 2 mg/kg, po and 1 mg/kg, iv; format: ADME, organism-based; settings: in vivo
HCC1954 = assay: Antiproliferative activity against human HCC1954 cells assessed as chemiluminescence measured after 4 days incubation by Celltiter Glo assay; settings: HCC1954, 96 h
[30] = AUC in Cynomolgus monkey at 2 mg/kg, po and 1 mg/kg, iv; format: ADME, organism-based, Macaca fascicularis; settings: in vivo
[31] = Cmax in Balb/c mouse at 30 mg/kg, po; format: ADME, organism-based; settings: in vivo
[32] = Plasma protein binding in dog; format: ADME, cell-free, Canis lupus familiaris; settings: read-out: PPB (converted)
[33] = Plasma protein binding in human; format: ADME, cell-free; settings: read-out: PPB (converted)
Cytochrome P450 3A4 [34] = biological target: T1, Cytochrome P450 3A4; assay: Inhibition of CYP3A4 (unknown origin) assessed as reduction in midazolam metabolism; format: ADME
[35] = Half life in dog liver microsomes; format: ADME, Canis lupus familiaris, Microsome
[36] = Plasma protein binding in mouse; format: ADME, cell-free; settings: read-out: PPB (converted)
[37] = Half life in monkey liver microsomes; format: ADME, Macaca mulatta, Microsome; settings: rhesus monkey
[38] = Solubility in compound in FessIF; format: physicochemical
[39] = Permeability of compound across apical to basolateral side in human Caco-2 cells; format: ADME, cell-based; settings: read-out: permeability
NCI-N87 = assay: Antiproliferative activity against human NCI-N87 cells assessed as chemiluminescence measured after 4 days incubation by Celltiter Glo assay; settings: NCI-N87, 96 h
[40] = AUC in Balb/c mouse at 10 mg/kg, po; format: ADME, organism-based; settings: in vivo
[41] = Toxicity in nude Balc/c mouse xenografted with human OVCAR-3 cells assessed as change in body weight at 10 to 30 mg/kg, po measured after 21 days; format: organism-based; settings: in vivo, 504 h, dose 10-30 mg/kg, time 21 day
[42] = Half life in Cynomolgus monkey at 2 mg/kg, po and 1 mg/kg, iv; format: ADME, organism-based, Macaca fascicularis; settings: in vivo
[43] = Solubility in compound in FassGF; format: physicochemical

T1 sequence (P08684 whole entry): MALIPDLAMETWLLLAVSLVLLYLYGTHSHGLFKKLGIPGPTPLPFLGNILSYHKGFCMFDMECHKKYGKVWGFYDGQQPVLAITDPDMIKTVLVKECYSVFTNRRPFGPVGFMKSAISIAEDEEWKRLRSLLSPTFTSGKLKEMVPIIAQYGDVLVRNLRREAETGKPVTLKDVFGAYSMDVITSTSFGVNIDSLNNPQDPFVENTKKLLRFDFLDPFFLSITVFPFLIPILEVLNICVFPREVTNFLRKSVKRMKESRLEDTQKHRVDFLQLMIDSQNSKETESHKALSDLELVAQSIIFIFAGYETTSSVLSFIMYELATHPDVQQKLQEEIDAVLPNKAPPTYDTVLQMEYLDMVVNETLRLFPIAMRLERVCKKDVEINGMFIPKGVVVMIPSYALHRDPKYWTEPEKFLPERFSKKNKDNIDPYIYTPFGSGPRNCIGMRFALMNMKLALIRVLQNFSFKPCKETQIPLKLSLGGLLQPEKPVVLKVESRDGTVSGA
Voltage-gated inwardly rectifying potassium channel KCNH2, sequence (Q12809 whole entry): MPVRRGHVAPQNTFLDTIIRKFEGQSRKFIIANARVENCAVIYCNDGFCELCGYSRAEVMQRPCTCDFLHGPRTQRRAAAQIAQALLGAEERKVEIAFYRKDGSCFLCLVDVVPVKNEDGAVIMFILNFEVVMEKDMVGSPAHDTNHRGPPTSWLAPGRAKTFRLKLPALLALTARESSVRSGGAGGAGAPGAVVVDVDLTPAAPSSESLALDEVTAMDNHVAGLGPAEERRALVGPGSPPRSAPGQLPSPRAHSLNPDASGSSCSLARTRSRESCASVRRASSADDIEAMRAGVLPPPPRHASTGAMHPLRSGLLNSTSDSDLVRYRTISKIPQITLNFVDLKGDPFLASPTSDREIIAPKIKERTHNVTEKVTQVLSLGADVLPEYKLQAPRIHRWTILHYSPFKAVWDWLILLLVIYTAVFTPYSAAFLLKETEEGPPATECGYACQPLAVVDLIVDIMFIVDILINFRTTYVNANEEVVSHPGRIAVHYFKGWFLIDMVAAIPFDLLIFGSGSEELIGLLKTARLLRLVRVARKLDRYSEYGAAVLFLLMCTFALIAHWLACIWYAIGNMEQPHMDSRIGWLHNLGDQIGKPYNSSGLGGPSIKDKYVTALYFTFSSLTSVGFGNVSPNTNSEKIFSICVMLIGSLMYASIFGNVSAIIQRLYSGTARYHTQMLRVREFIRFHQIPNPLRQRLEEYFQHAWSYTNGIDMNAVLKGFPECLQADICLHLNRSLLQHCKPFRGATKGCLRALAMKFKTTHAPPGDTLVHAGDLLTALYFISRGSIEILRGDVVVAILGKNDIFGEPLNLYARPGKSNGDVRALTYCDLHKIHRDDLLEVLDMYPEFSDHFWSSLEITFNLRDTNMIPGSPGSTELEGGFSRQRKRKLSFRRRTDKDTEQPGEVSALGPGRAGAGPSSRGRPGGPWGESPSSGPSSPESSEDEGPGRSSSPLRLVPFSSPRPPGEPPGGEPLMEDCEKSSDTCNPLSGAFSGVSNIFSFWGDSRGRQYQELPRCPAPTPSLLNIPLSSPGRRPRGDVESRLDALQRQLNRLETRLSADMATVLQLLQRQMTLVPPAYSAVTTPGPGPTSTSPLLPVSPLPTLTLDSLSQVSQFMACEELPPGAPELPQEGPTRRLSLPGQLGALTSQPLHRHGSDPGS

half-life [1]: 0.38 h
bioavailability [3]: 68.2%
Cmax [4]: 478 ng/mL
fraction unbound [5]: 0.0023
IC50 (Cytochrome P450 3A4 [6]): 23 µM
solubility [8]: 18.5 µM (≈ 10.4 µg/mL)
Cmax [9]: 2160 ng/mL
Cmax [10]: 1150 ng/mL
AUC [11]: 11500 ng·h/mL
fraction unbound [12]: 0.0008
EC50 (cells): 0.0647 µM
AUC(0-t) [13]: 5840 ng·h/mL
half-life [14]: 3.38 h
half-life [15]: 7.6 h
half-life [16]: 6.38 h
Cmax [17]: 552 ng/mL
half-life [18]: 1.47 h
bioavailability [19]: 73%
half-life [20]: 4.6 h
AUC [21]: 54400 ng·h/mL
half-life [23]: 1.03 h
Papp B→A [24]: 0.49 ×10⁻⁶ cm/s
bioavailability [25]: 40.2%
IC50 (BXPC-3): 8.61 µM
AUC [26]: 3340 ng·h/mL
Cmax [27]: 393 ng/mL
bioavailability [28]: 76.9%
half-life [29]: 2.7 h
IC50 (HCC1954): 0.014 µM
AUC [30]: 2850 ng·h/mL
Cmax [31]: 4040 ng/mL
fraction unbound [32]: 0.0007
fraction unbound [33]: 0.0004
IC50 (Cytochrome P450 3A4 [34]): 22.4 µM
half-life [35]: 2.21 h
fraction unbound [36]: 0.0011
half-life [37]: 0.203 h
solubility [38]: 43.6 µM (≈ 24.4 µg/mL)
Papp A→B [39]: < 0.01 ×10⁻⁶ cm/s
AUC [40]: 27700 ng·h/mL
half-life [42]: 4.5 h
solubility [43]: 3.3 µM (≈ 1.85 µg/mL)
Compound: Cc1cc(NC(=O)c2ccc(NS(=O)(=O)CCO)cc2C2=CCC3(CC2)CC3)nc(N2CCC(F)(F)CC2)c1
IC50 (NUGC-3): 0.016 µM
IC50 [2]: > 30 µM
Activity (OVCAR-3 [7]): Tde
inhibition in vivo at 30 mg/kg (OVCAR-3 [22]): 113%
IC50 (NCI-N87): 8.61 µM
Activity [41]: Non-Toxic
